Source: patent US4153724A, “Benzoyl phenoxy acetic acid derivatives” (Kaken Chemical Co., Ltd., priority 1976, dated 1979)
Read-outs that look alike come from different tables or passages of the source.

Legend:
Rats with hyperlipidemia = assay: Test 2: antihyperlipidemic activity in rats with dietary hyperlipidemia; type: in vivo, Wister type male rats; conditions: 200 mg/kg oral, 4 days adm.
Experimental: The antihyperlipidemic activity in rats with dietary hyperlipidemia.
In the tests, Wister type male rats (weight: 140 g) were used in groups of 6 each.
A feed containing 2% of cholesterol, 1% of sodium cholate and 5% of cocconut oil was given for 4 days to cause hyperlipidemia.
Each active ingredient was suspended in a 1% aqueous solution of Tween 80 and the suspension was orally administrated in a dose of 100 mg/Kg or 200 mg/Kg once daily for 4 days starting with the supply of the cholesterol supplemented diet.
After 24 hours from the final administration, blood was sampled and the concentration of total cholesterols and the concentration of triglyceride were measured by the methods of Test 1.

Test 3: acute toxicity = conditions: mouse, in vivo
Experimental: In the acute toxicity tests, male mice (weight: 22 to 25 g) were used in groups of 10 each.
Eash active ingredient was dissolved in olive oil and the solution was orally administrated in a volume corresponding to the body weight.
LD50 was calculated by the area method from the mortal percent after 72 hours from the administration.
The compound numbers are the same with those of Tables 1 and 2.

Normal mice [1] = assay: Test 1: hypolipidemic activity in normal mice; type: in vivo, ICR type male mice; conditions: 200 mg/kg oral, 1 time adm., 24 h
Experimental: The hypolipidemic activity in normal mice (lowering effect of normal blood lipid level).
In the tests, ICR type male mice (weight: about 35 g) were used in groups of 6 each.
Each active ingredient was suspended in a 1% aqueous solution of Tween-80 (polyoxyethylene sorbitane monoalkylate) (Atlas Co.) and the suspension was orally administrated in a dose of 200 mg/Kg.
After 24 hours from the administration, blood was sampled and the concentration of total cholesterols in blood-plasma was measured by the method described in Clinical chemistry Vol. 22 page 393 (1968) and the concentraton of triglyceride (neutral fat) was measured by Fletcher method (Clinica Chimica Acta) Vol. 10 page 451 (1964).
As the active ingredients, the compounds (I) and ethyl-α-(p-chlorophenoxy)-isobutylate having the formula [drawing 17] were used.
The same tests for hypolipidemic activity (lowering of blood lipid level) were carried out by using the reference compounds (IV).

Normal mice [2] = assay: Test 1: hypolipidemic activity in normal mice; type: in vivo, ICR type male mice; conditions: Mus musculus, 24 h, Table 4, reference compounds (IV), 1 time adm.
[3] = found by the administration of ethyl-α-(p-chlorophenoxy)-isobutyrate; cited from earlier work
[4] = series (b), comparison with compounds 2-12 (P-control 92.0, Normal 37.6)
[5] = series (b), comparison with compounds 2-12 (P-control 260.0, Normal 57.2)
[6] = Table 3, male mice, oral in olive oil, 72 hours, read-out: LD50 oral
[7] = series (b), comparison with compounds 2-12 (Normal 52.0)
[8] = series (b), comparison with compounds 2-12 (Normal 69.3)
[9] = read-out: Total cholesterol (lowering of blood lipid level)
[10] = read-out: Triglyceride (lowering of blood lipid level)
[11] = po, Table 4, reference compounds (IV), read-out: LD50
[12] = series (a), comparison with compound 1 (P-control 141.9)
[13] = series (a), comparison with compound 1 (P-control 302.4)
[14] = series (a), comparison with compound 1 (Normal 62.6)
[15] = series (a), comparison with compound 1 (Normal 83.6)

Row | SMILES | Decrease of triglyceride (Rats with hyperlipidemia; [4]) [mg/dL] | Serum total cholesterol concentration (Rats with hyperlipidemia; [5]) [mg/dL] | LD50 at 72 h (Test 3: acute toxicity; [6]) [mg/kg] | Decrease of triglyceride (Normal mice [1]; [7]) [mg/dL] | Decrease of cholesterol (Normal mice [1]; [8]) [mg/dL] | inhibition in vivo at 200 mg/kg (Normal mice [2]; [9]) [%] | inhibition in vivo at 200 mg/kg (Normal mice [2]; [10]) [%] | LD50 at 72 h (Test 3: acute toxicity; [11]) [mg/kg] | other results
1 | CCOC(=O)C(Oc1ccc(C(=O)c2cccc(C)c2)cc1)C1CCCCC1 (centres unmarked) [Invention Compound 10] | 73.6 ± 10.0 | 196.1 ± 13.2 | 3000 |  |  |  |  |  | 
2 | CCOC(=O)C(Oc1ccc(C(=O)c2ccccc2)cc1)C1CCCCC1 (centres unmarked) [Invention Compound 3] | 81.6 ± 7.3 | 211.0 ± 5.5 | 1000 | 60.1 ± 2.8 | 66.6 ± 1.9 |  |  |  | 
3 | Cc1ccccc1C(=O)c1ccc(OC(C(=O)O)c2ccccc2)cc1 (centres unmarked) [compound 14, 2-[P-(2-methylbenzoyl)-phenoxy]phenyl acetic acid] |  |  |  |  |  | 21 | 2 |  | 
4 | CCOC(=O)C(Oc1ccc(C(=O)c2ccccc2Cl)cc1)C1CCCCC1 (centres unmarked) [Invention Compound 8] | 75.6 ± 8.3 | 185.4 ± 7.1 | 1000 |  |  |  |  |  | 
5 | O=C(c1ccccc1)c1ccc(OC(C(=O)O)c2ccccc2)cc1 (centres unmarked) [compound 20] |  |  |  |  |  | 19 | 7 | > 3000 | 
6 | CCOC(=O)C(Oc1ccc(C(=O)c2ccc(F)cc2)cc1)c1ccccc1 (centres unmarked) [compound 5] |  |  |  |  |  | 21 | 1 | 1500 | 
7 | CCOC(=O)C(C)(C)Oc1ccc(Cl)cc1 [***, ethyl-α-(p-chlorophenoxy)-isobutylate, reference compound] | 62.5 ± 9.5 | 258.5 ± 16.0 | 1500 | 46.8 ± 3.5 | 55.4 ± 3.1 | 15 | 10 |  | Decrease of triglyceride (Rats with hyperlipidemia; [12]): 80.9 ± 17.8 mg/dL; Serum total cholesterol concentration (Rats with hyperlipidemia; [13]): 285.5 ± 25.3 mg/dL; Decrease of triglyceride (Normal mice [1]; [14]): 46.6 ± 7.3 mg/dL; Decrease of cholesterol (Normal mice [1]; [15]): 69.0 ± 5.3 mg/dL; hepatic disease (hepatitis) [3]: found
8 | CCOC(=O)C(Oc1ccc(C(=O)c2cccc(Cl)c2)cc1)C1CCCCC1 (centres unmarked) [Invention Compound 7, Ethyl 2-[p-(3-chlorobenzoyl)-phenoxy]-cyclohexyl acetate] | 52.1 ± 9.0 | 123.8 ± 9.1 | 2500 | 45.5 ± 5.4 | 56.4 ± 5.1 |  |  |  | 
9 | CCOC(=O)C(Oc1ccc(C(=O)c2ccccc2F)cc1)C1CCCCC1 (centres unmarked) [Invention Compound 6] | 89.2 ± 15.6 | 243.0 ± 6.1 | 1000 |  |  |  |  |  | 
10 | CCOC(=O)C(Oc1ccc(C(=O)c2ccc(C)cc2)cc1)C1CCCCC1 (centres unmarked) [Invention Compound 9, Ethyl 2-[p-(4-methylbenzoyl)-phenoxy]-cyclohexyl acetate] | 58.5 ± 6.7 | 188.7 ± 18.4 | 3500 | 56.9 ± 6.1 | 59.1 ± 3.4 |  |  |  | 
11 | CCOC(=O)C(Oc1ccc(C(=O)c2ccccc2C)cc1)C1CCCCC1 (centres unmarked) [Invention Compound 11] | 89.4 ± 7.7 | 203.5 ± 12.1 | 700 |  |  |  |  |  | 
12 | CCOC(=O)C(Oc1ccc(C(=O)c2ccccc2C)cc1)c1ccccc1 (centres unmarked) [compound 13, ethyl 2-[p-(2-methylbenzoyl)-phenoxy] phenyl acetate] |  |  |  |  |  | 27.7 | 41.9 | > 2000 | 
13 | CCOC(=O)C(Oc1ccc(C(=O)c2ccccc2Cl)cc1)c1ccccc1 (centres unmarked) [compound 7, Ethyl 2-[p-(2-chlorobenzoyl)-phenoxy]phenyl acetate] |  |  |  |  |  | 16 | 8 | > 10000 | 
14 | CCOC(=O)C(Oc1ccc(C(=O)c2ccc(OC)cc2)cc1)C1CCCCC1 (centres unmarked) [Invention Compound 4] | 88.7 ± 8.9 | 187.0 ± 18.1 | 2500 | 38.2 ± 2.5 | 51.9 ± 2.6 |  |  |  | 
15 | CCOC(=O)C(Oc1ccc(C(=O)c2ccc(F)cc2)cc1)C1CCCCC1 (centres unmarked) [Invention Compound 2, Ethyl-2-[p-(4-fluorobenzoyl)-phenoxy]-cyclohexyl acetate] | 88.5 ± 12.3 | 215.3 ± 6.7 | 1000 |  |  |  |  |  | 
16 | CCOC(=O)C(Oc1ccc(C(=O)c2cccc(F)c2)cc1)c1ccccc1 (centres unmarked) [compound 3] |  |  |  |  |  | 16 | 19 | 2000 | 
17 | CCOC(=O)C(Oc1ccc(C(=O)c2ccc(Cl)cc2)cc1)c1ccccc1 (centres unmarked) [compound 11, Ethyl 2-[p-(4-chlorobenzoyl)-phenoxy]phenyl acetate] |  |  |  |  |  | 24 | 52 | 3000 | 
18 | CCOC(=O)C(Oc1ccc(C(=O)c2ccccc2F)cc1)c1ccccc1 (centres unmarked) [compound 1] |  |  |  |  |  | 18 | 36 | 1500 | 
19 | CCOC(=O)C(Oc1ccc(C(=O)c2cccc(F)c2)cc1)C1CCCCC1 (centres unmarked) [Invention Compound 5] | 90.3 ± 16.8 | 147.5 ± 8.3 | 3500 | 60.0 ± 4.2 | 54.5 ± 2.6 |  |  |  | 
20 | CCOC(=O)C(Oc1ccc(C(=O)c2ccc(Cl)cc2)cc1)C1CCCCC1 (centres unmarked) [Invention Compound 1, Ethyl 2-[p-(4-chlorobenzoyl)-phenoxy]-cyclohexyl acetate] |  |  | 2500 |  |  |  |  |  | Decrease of triglyceride (Rats with hyperlipidemia; [12]): 69.7 ± 13.8 mg/dL; Serum total cholesterol concentration (Rats with hyperlipidemia; [13]): 126.5 ± 8.1 mg/dL; Decrease of triglyceride (Normal mice [1]; [14]): 52.2 ± 7.6 mg/dL; Decrease of cholesterol (Normal mice [1]; [15]): 59.4 ± 4.8 mg/dL
